The values that follow come from US20020133009A1, “Method for opening potassium channels” (priority 2001, published 2002).

Assay [1] concerns the target T1, maxi-K+ channels (Bos taurus, UniProt Q28204).
T1 construct: endogenous in cells; host or cells: cultured bovine trabecular meshwork (TM) cells
Kind of assay: Patch clamp whole-cell current measurements in cultured bovine trabecular meshwork (TM) cells. In kind it is cell-based. As for the experimental part: (§1) Patch clamp experiments of cultured human and bovine trabecular meshwork (TM) cells are performed. Nystatin in a pipette is used to obtain perforated patches. Whole-cell current measurements in the cells are performed. Voltages from −80mV to +120mV with 200-msec duration each are applied through the patch pipette, starting from a holding potential of −40mV. After each step, the voltage is returned to a holding potential of […] for 200-msec. Currents are continuously sampled at 100 Hz throughout the duration of the protocol.
(Patch clamp records ionic current or voltage across a cell membrane.)

Assay [2] deals with T2, maxi-K+ channels (Homo sapiens, UniProt Q12791).
T2 construct: endogenous in cells; host or cells: cultured human trabecular meshwork (TM) cells
Put plainly: Patch clamp whole-cell current measurements in cultured human trabecular meshwork (TM) cells. In kind it is cell-based. Here is the method:
as §1

T2 sequence (Q12791 whole entry): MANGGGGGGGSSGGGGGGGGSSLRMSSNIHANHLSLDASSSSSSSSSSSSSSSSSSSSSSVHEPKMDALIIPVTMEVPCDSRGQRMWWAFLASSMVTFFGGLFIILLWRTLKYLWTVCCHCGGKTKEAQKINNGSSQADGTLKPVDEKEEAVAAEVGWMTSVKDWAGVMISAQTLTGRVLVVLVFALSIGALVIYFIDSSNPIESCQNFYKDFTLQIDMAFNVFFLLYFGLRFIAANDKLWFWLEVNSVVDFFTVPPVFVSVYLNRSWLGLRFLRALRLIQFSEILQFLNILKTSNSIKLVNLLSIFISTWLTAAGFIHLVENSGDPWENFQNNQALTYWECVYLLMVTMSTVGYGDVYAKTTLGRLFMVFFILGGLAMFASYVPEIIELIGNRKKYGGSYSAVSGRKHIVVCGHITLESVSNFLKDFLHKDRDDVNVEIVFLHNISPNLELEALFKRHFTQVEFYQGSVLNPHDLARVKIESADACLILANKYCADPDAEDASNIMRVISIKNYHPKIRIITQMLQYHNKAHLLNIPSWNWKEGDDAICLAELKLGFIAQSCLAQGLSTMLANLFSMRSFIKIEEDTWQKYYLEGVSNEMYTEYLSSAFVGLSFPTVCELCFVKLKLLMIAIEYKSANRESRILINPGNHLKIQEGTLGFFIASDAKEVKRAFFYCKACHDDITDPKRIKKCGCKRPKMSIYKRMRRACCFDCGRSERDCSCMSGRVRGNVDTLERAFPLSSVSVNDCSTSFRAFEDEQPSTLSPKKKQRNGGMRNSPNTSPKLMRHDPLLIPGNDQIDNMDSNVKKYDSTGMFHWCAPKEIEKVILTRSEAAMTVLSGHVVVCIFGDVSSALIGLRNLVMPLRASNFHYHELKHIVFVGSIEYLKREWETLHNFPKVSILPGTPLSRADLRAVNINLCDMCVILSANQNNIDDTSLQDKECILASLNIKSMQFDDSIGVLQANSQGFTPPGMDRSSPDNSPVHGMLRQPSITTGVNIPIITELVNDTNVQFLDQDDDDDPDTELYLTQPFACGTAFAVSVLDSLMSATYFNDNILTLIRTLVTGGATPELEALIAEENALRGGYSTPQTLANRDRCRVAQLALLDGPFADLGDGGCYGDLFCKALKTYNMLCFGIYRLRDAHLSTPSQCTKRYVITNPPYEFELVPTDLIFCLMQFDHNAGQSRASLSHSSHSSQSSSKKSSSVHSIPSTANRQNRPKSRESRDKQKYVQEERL
T1 sequence (Q28204 whole entry): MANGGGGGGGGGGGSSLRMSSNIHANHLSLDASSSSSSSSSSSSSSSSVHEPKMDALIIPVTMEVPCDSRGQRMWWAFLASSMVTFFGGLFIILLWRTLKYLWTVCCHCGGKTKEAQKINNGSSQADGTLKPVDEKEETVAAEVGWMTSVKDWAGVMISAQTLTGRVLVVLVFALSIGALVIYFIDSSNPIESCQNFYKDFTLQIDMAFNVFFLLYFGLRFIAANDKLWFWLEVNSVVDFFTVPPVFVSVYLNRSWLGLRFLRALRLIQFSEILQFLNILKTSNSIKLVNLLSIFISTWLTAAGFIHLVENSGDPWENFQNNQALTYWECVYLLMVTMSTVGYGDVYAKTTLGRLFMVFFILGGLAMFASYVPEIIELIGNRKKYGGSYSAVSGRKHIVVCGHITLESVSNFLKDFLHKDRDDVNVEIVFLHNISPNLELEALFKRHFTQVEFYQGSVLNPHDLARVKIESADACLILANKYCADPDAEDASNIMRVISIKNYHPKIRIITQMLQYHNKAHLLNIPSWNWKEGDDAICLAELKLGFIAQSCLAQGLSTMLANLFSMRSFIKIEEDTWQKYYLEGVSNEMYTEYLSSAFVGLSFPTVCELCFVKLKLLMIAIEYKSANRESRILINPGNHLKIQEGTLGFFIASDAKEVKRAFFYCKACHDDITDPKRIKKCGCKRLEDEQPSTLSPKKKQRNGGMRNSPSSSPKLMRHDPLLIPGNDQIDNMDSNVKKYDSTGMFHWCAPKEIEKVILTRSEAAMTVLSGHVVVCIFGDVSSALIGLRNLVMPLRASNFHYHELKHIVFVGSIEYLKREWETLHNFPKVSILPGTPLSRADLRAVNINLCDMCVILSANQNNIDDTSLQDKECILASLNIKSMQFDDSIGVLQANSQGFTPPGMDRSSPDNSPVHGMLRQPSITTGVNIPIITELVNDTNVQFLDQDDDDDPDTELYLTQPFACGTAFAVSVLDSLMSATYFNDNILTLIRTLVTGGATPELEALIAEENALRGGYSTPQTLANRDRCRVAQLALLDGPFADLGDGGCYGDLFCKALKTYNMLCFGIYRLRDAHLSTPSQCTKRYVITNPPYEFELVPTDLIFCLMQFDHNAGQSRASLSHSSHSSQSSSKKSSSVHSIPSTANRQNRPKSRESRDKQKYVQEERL

As for `CCCCCCCC(=O)CC[C@@H]1[C@@H](C/C=C\CCCC(=O)OC(C)C)[C@@H](O)C[C@H]1O` [unoprostone isopropyl, [1R-[1α(Z),2β,3a,5a]]-7-[3,5-dihydroxy-2-(3-oxodecyl)cyclopentyl]-5-heptenoic acid isopropyl ester], the “overall current of the cells” value in assay [1] (bovine TM cells incubated in either acetylcholine or endothelin) and in assay [2] (human TM cells incubated in either acetylcholine or endothelin) was “stimulated the overall current” throughout. The “total current, % of the control” value in assay [1] (bovine trabecular meshwork cells incubated in acetylcholine, 10^-5 M unoprostone isopropyl, p<0.01) is given as “approximately 180%”. For the same compound, the “maxi-K+ channel opening” value in assay [1] (conclusion from iberiotoxin block, TM cells, species not given) is “opens maxi-K+ channels”. Besides, the overall current result in assay [2] (human trabecular meshwork cells incubated in acetylcholine) is “stimulates the overall current”; in assay [2] (human trabecular meshwork cells incubated in the presence of endothelin), “induces an increase in the overall current”.

Consider “iberiotoxin: highly specific inhibitor of maxi-K+ channels (QFTDVDCSVSKECWSVCKDLFGVDRGKCMGKKCRCYQ; UniProt P24663 1-37, looked up) [reference compound]”, for which the “effect on unoprostone isopropyl-induced current” value in assay [1] (TM cells, species not given) was “totally reduced”. Moreover, in assay [1] (bovine trabecular meshwork cells incubated in acetylcholine, after unoprostone isopropyl stimulation), the “total current inhibited by iberiotoxin, % of the control” value is “approximately 40%”.
